Measurements as given in paper PMC5858870 (Environmental pollution (Barking, Essex : 1987), 2018).
Like-named read-outs stand apart in the source and are kept apart here.

How the values were obtained:
[1] = for Whole-body conc D 50 High / Whole-body conc D 50 Med: day 50 (after depuration), wet weight, < = reporting limit; for Whole-body conc D 50 Med: medium dose
carp = carp (Catla catla) exposed; ref Muthuviveganandavel et al., 2013; cited from earlier work
male fathead minnow = conditions: exposed to 40,000 ng/L (40 ng/mL); ref Niemuth and Klaper, 2015; cited from earlier work
rainbow trout = conditions: relatively low concentrations in the range of ng/mL; ref Ashfield et al., 1998; cited from earlier work
[2] = Apparent half-life during depuration phase; conditions: whole-body, apparent first order
[3] = tested on: mitochondrial respiration; conditions: ref Schnellmann et al., 1990; Shim et al., 2016; cited from earlier work
[4] = in vivo; cited from earlier work
fish = conditions: ref Kim et al. (2007); cited from earlier work
[5] = day 32, high dose, nominal ratio 10×
[6] = day 32, low dose, nominal ratio 0.3×
[7] = day 32, medium dose, nominal ratio 1×
[8] = Chinook salmon (Oncorhynchus tshawytscha), juvenile, in vivo, 32 d
[9] = Chinook salmon (Oncorhynchus tshawytscha), juvenile, in vivo, 50 d

Compound | WB conc. factor (lab / field) D 32 High [1, 5] | WB conc. factor (lab / field) D 32 Low [1, 6] | WB conc. factor (lab / field) D 32 Med [1, 7] | WB conc. factor (lab / field) D 50 Med ([1]; day 50, medium dose) | other results
O=C(O)C(F)(F)C(F)(F)C(F)(F)C(F)(F)C(F)(F)F [PFHxA] | – | – | – | – | Whole-body conc D 50 High [1]: 0.82 ng/g; Whole-body conc D 50 Med [1]: 0.49 ng/g
CC1(C)C(C=C(Cl)Cl)C1C(=O)OC(C#N)c1cccc(Oc2ccccc2)c1 (centres unmarked) [cypermethrin] | – | – | – | – | Plasma enzymes ALT, AMYL, and acid phosphatase (carp): large reductions
octylphenol | – | – | – | – | Growth in rainbow trout (rainbow trout): inhibited growth
CC[C@H]1OC(=O)[C@H](C)[C@@H](O[C@H]2C[C@@](C)(OC)[C@@H](O)[C@H](C)O2)[C@H](C)[C@@H](O[C@@H]2O[C@H](C)C[C@H](N(C)C)[C@H]2O)[C@](C)(O)C[C@@H](C)CN(C)[C@H](C)[C@@H](O)[C@]1(C)O [Azithromycin, reference compound] | 17.1 | 1.67 | 1.03 | 1.42 | –
O=S(=O)(O)C(F)(F)C(F)(F)C(F)(F)C(F)(F)C(F)(F)C(F)(F)C(F)(F)C(F)(F)F [PFOS] | 4.01 | 0.17 | 0.22 | 0.34 | Whole-body conc D 50 High [1]: 123 ng/g; Whole-body conc D 50 Med [1]: 11.6 ng/g; Half life High [2]: 134 days
Oc1cc(Cl)ccc1Oc1ccc(Cl)cc1Cl [Triclosan] | – | – | – | – | Uncoupling of mitochondrial respiration [3]: known uncouplers of mitochondrial respiration
CNCCN1C(=O)[C@H](OC(C)=O)[C@H](c2ccc(OC)cc2)Sc2ccccc21 [Desmethyl-diltiazem] | 108 | 4.67 | 9.00 | 9.6 | Whole-body conc D 50 High [1]: 119 ng/g; Whole-body conc D 50 Med [1]: 14.4 ng/g
nonylphenol diethoxylate | – | – | – | – | Growth in rainbow trout (rainbow trout): inhibited growth
O=C(O)C(F)(F)C(F)(F)C(F)(F)C(F)(F)C(F)(F)C(F)(F)C(F)(F)C(F)(F)C(F)(F)F [PFDA] | 39.9 | 1.68 | 2.76 | 2.63 | Whole-body conc D 50 High [1]: 14.4 ng/g; Whole-body conc D 50 Med [1]: 2.05 ng/g; Half life High [2]: 16.2 days; Half life Med ([2]; medium dose): 262 days
nonylphenol | – | – | – | – | Growth in rainbow trout (rainbow trout): inhibited growth
NS(=O)(=O)C(F)(F)C(F)(F)C(F)(F)C(F)(F)C(F)(F)C(F)(F)C(F)(F)C(F)(F)F [PFOSA] | – | – | – | – | Max WB conc field Scul [4]: 2.2 ng/g; Uncoupling of mitochondrial respiration [3]: known uncouplers of mitochondrial respiration; WB conc. factor (lab / field) D 32 High [1, 8]: 85.9; WB conc. factor (lab / field) D 32 Low [1, 8]: 2.74; WB conc. factor (lab / field) D 32 Med [1, 8]: 4.15; WB conc. factor (lab / field) D 50 High [1, 9]: 55.9; WB conc. factor (lab / field) D 50 Med [1, 9]: 7.0
COc1ccc([C@@H]2Sc3ccccc3N(CCN(C)C)C(=O)[C@@H]2OC(C)=O)cc1 [Diltiazem, reference compound] | 63.8 | 10.7 | 6.56 | 2.37 | 96h LC50 (fish): 15 mg/L

The next lines start with results.

WB conc. factor (lab / field) D 32 High [1, 5] | WB conc. factor (lab / field) D 32 Low [1, 6] | WB conc. factor (lab / field) D 32 Med [1, 7] | Compound | WB conc. factor (lab / field) D 50 Med ([1]; day 50, medium dose) | other results
1.34 | – | – | O=C(Nc1ccc(Cl)cc1)Nc1ccc(Cl)c(Cl)c1 [Triclocarban] | – | –
5.37 | 0.67 | 0.43 | CN(C)CCOC(c1ccccc1)c1ccccc1 [Diphen hydramine, reference compound] | – | –
1.42 | 0.16 | – | CN(C)C(=N)N=C(N)N [Metformin, reference compound] | – | Growth in male fathead minnow (male fathead minnow): reduced growth
0.53 | – | – | CN[C@H]1CC[C@@H](c2ccc(Cl)c(Cl)c2)c2ccccc21 [Sertraline, reference compound] | – | –
5.59 | 0.31 | 0.38 | NCCC(Oc1ccc(C(F)(F)F)cc1)c1ccccc1 (centres unmarked) [Norfluoxetine] | 0.52 | –
19.5 | 1.15 | 1.12 | CCOC(=O)C1=C(COCCN)NC(C)=C(C(=O)OC)C1c1ccccc1Cl (centres unmarked) [Amlodipine, reference compound] | – | –
4.00 | 0.29 | 0.21 | CNCCC(Oc1ccc(C(F)(F)F)cc1)c1ccccc1 (centres unmarked) [Fluoxetine, reference compound] | 0.19 | –
7.39 | 0.64 | – | Clc1ccc(COC(Cn2ccnc2)c2ccc(Cl)cc2Cl)c(Cl)c1 (centres unmarked) [Miconazole, reference compound] | – | –
1.41 | 0.19 | – | CN(C)CCC=C1c2ccccc2CCc2ccccc21 [Amitriptyline, reference compound] | – | –
2.57 | – | – | Cc1ccc(C)c(OCCCC(C)(C)C(=O)O)c1 [Gemfibrozil, reference compound] | – | –
